Results on 1 molecule are retold here after ChEMBL document CHEMBL5620374, “Synthesis and bioevaluation of novel stilbene-based derivatives as tubulin/HDAC dual-target inhibitors with potent antitumor activities in vitro and in vivo” (Eur J Med Chem, 2023).

Data set [1] concerns the target T1, Histone deacetylase 1 (Homo sapiens, UniProt Q13547). The experiment in a line: Inhibition of HDAC1 in human K562 cells assessed as increase in Acetyl-histone H3 level at 0.01 to 1 uM incubated for 24 hrs by Western blot analysis. In kind it is cell-based. The conditions noted are these: dose 0.01-1 µM.
For data set [2], the system named is K562. Description: Induction of apoptosis in human K562 cells assessed as necrotic cells at 8 nM incubated for 48 hrs by Annexin V/PI staining based flow cytometry (reference value: 2.56 +/- 0.22 %). In kind it is functional.
For data set [3], the system named is K562. Description: Induction of apoptosis in human K562 cells assessed as early apoptotic cells at 8 nM incubated for 48 hrs by Annexin V/PI staining based flow cytometry (reference value: 1.55 +/- 0.21 %). In kind it is functional.
Data set [4] in a line: Toxicity in ICR mouse allografted with mouse H22 cells assessed as toxic sign in lung at 10 to 20 mg/kg, iv qd for 17 days consecutively by H and E staining based analysis. In kind it is organism-based. The conditions noted are these: in vivo, dose 10-20 mg/kg, time 17 day.
Data set [5] relates to K562. Description: Induction of apoptosis in human K562 cells assessed as viable cells at 2 nM incubated for 48 hrs by Annexin V/PI staining based flow cytometry (reference value: 92.52 +/- 0.34 %). In kind it is functional. The conditions noted are these: read-out: Activity.
Data set [6] relates to K562. The experiment in a line: Antiproliferative activity against human K562 cells incubated for 72 hrs by MTT assay. The conditions noted are these: K562, 72 h. In kind it is functional, cell-based.
Data set [7] has as its system K562. The experiment in a line: Induction of ROS generation in human K562 cells assessed as DCF-positive cells at 8 nM incubated for 48 hrs by DCF-DA probe based flow cytometry (reference value: 3.87 %). In kind it is functional.
Data set [8] has as its system MDA-MB-231. The experiment in a line: Inhibition of cell […] in human MDA-MB-231 cells incubated for 24 hrs by wound healing assay. In kind it is functional, cell-based. The conditions noted are these: dose 2-8 nM.
The target of data set [9] is T1, Histone deacetylase 1. Description: Inhibition of HDAC1 derived from human HeLa cell extract using Ac-Leu-Gly-Lys (Ac)-AMC as substrate by fluorescence based assay. In kind it is cell-free.
Data set [10] has as its system K562. Description: Inhibition of mitochondrial membrane potential in human K562 cells assessed as green fluorescence intensity at 2 nM incubated for 48 hrs by JC-1 staining based flow cytometry (reference value: 6.63 +/- 0.27 %). In kind it is functional.
Data set [11] relates to K562. The experiment in a line: Induction of apoptosis in human K562 cells assessed as necrotic cells at 2 nM incubated for 48 hrs by Annexin V/PI staining based flow cytometry (reference value: 2.56 +/- 0.22 %). In kind it is functional.
A further data set deals with A2780. The experiment in a line: cells. The conditions noted are these: Homo sapiens, A2780, 72 h.
Data set [12] deals with K562. The experiment in a line: Induction of apoptosis in human K562 cells assessed as increase in Bad level incubated for 24 hrs by Western blot analysis. In kind it is functional, cell-based. The conditions noted are these: dose 2-8 nM.
The test system of data set [13] is K562. Description: Induction of ROS generation in human K562 cells assessed as DCF-positive cells at 4 nM incubated for 48 hrs by DCF-DA probe based flow cytometry (reference value: 3.87 %). In kind it is functional.
Data set [14] in a line: Toxicity in ICR mouse allografted with mouse H22 cells assessed as toxic sign in heart at 10 to 20 mg/kg, iv qd for 17 days consecutively by H and E staining based analysis. In kind it is organism-based. The conditions noted are these: in vivo, dose 10-20 mg/kg, time 17 day.
Another data set has as its system HUVEC. Description: Inhibition of tube formation in HUVEC cells incubated for 24 hrs by inverted microscopy. In kind it is functional, cell-based. The conditions noted are these: Homo sapiens.
Data set [15] has as its system K562. The experiment in a line: Induction of apoptosis in human K562 cells assessed as increase in Bax level incubated for 24 hrs by Western blot analysis. In kind it is functional, cell-based. The conditions noted are these: dose 2-8 nM.
In data set [16] the test system is K562. The experiment in a line: Induction of apoptosis in human K562 cells assessed as early apoptotic cells at 4 nM incubated for 48 hrs by Annexin V/PI staining based flow cytometry (reference value: 1.55 +/- 0.21 %). In kind it is functional.
Data set [17] addresses T2, Histone deacetylase 2 (Homo sapiens, UniProt Q92769). The experiment in a line: Inhibition of HDAC2 derived from human HeLa cell extract using Ac-Leu-Gly-Lys (Ac)-AMC as substrate by fluorescence based assay.
Data set [18] addresses T3, Protein deacetylase HDAC6 (Homo sapiens, UniProt Q9UBN7).
T3 sequence (Q9UBN7 whole entry): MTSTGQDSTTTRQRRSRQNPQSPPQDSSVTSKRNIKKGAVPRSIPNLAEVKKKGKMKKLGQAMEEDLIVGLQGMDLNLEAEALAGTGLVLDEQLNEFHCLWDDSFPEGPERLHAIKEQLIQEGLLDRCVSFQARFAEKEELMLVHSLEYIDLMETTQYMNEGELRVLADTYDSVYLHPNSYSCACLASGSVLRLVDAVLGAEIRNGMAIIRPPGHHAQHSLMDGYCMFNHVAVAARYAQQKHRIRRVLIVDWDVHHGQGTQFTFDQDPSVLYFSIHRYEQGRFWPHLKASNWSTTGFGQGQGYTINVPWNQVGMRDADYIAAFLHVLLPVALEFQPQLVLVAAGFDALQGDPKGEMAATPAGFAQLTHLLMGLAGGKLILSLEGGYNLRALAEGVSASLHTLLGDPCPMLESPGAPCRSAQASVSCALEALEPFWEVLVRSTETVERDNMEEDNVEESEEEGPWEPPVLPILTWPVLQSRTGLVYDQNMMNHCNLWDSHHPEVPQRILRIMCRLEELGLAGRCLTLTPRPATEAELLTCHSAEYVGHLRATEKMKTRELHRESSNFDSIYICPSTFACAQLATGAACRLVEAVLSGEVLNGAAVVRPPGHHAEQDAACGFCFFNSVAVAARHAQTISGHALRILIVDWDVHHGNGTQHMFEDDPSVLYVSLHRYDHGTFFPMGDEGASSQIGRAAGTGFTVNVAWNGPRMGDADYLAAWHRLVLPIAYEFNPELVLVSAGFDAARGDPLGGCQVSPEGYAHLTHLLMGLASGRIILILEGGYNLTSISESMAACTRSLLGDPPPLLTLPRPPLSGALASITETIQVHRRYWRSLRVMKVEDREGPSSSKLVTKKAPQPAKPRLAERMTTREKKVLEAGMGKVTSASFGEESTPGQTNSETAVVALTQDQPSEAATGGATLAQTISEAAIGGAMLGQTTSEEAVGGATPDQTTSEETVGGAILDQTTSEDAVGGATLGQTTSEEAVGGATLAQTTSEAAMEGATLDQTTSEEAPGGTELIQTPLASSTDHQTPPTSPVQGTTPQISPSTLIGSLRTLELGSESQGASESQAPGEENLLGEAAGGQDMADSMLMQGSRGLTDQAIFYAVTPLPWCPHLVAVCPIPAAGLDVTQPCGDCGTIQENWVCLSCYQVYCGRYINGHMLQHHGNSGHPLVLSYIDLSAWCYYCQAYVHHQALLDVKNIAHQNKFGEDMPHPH
Description: Inhibition of HDAC6 derived from human HeLa cell extract using Ac-Leu-Gly-Lys (Ac)-AMC as substrate by fluorescence based assay. In kind it is cell-free.

Data set [19] has as its target T2, Histone deacetylase 2. Description: Inhibition of HDAC2 in human K562 cells assessed as increase in Acetyl-histone H3 level at 0.01 to 1 uM incubated for 24 hrs by Western blot analysis. In kind it is cell-based. The conditions noted are these: dose 0.01-1 µM.
Data set [20] has as its system K562. Description: Induction of apoptosis in human K562 cells assessed as viable cells at 8 nM incubated for 48 hrs by Annexin V/PI staining based flow cytometry (reference value: 92.52 +/- 0.34 %). The conditions noted are these: read-out: Activity. In kind it is functional.
In data set [21] the test system is MDA-MB-231. Description: cells. The conditions noted are these: Homo sapiens, MDA-MB-231, 72 h.
Description: Antiproliferative activity against human MDA-MB-231 cells incubated for 72 hrs by MTT assay

Each structure is given as a SMILES string. Activity calls are given as the source filed them. No cut-off for these calls is given here.

T1 sequence (Q13547 whole entry): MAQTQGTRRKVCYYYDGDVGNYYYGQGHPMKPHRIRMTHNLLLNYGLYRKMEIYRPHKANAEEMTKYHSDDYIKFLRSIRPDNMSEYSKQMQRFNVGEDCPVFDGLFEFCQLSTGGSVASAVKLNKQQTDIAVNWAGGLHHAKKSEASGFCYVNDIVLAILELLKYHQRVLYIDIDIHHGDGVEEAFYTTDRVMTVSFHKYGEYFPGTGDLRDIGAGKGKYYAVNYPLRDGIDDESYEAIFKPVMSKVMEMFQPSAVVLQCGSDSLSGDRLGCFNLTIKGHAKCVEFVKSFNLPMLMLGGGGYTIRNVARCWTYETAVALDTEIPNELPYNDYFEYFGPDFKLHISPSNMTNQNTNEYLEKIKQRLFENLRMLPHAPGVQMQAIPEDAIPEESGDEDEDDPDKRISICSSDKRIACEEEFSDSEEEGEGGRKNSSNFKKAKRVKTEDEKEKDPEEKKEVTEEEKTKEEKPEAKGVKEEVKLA
T2 sequence (Q92769 whole entry): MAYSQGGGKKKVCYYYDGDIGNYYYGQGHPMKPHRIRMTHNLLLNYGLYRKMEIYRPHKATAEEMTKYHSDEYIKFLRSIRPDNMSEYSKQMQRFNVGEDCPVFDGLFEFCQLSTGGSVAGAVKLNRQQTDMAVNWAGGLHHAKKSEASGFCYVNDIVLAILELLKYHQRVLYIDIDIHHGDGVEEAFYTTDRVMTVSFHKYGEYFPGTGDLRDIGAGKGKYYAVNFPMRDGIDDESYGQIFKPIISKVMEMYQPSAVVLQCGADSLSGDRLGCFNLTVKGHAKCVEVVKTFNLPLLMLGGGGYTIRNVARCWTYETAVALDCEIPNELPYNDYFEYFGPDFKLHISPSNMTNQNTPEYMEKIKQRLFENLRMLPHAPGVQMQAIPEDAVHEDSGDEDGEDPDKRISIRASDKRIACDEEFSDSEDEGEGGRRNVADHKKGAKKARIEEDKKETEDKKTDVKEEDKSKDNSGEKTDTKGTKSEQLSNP
Description for A2780: Antiproliferative activity against human A2780 cells incubated for 72 hrs by MTT assay

With `C=C(c1ccc(OC)c(OC(F)C(=O)NO)c1)c1cc(C)nc2ccccc12` (stereo not drawn), the inhibition entry on Histone deacetylase 1 [1] and on Histone deacetylase 2 [19] was “Active” in each case. Also, the Activity in the data set on K562 [2] is 3.7%; in the data set on K562 [3] it was 18.11%; in data set [4] it was “Non-Toxic”; in the data set with K562 [7], 42.67%; with K562 [11], 0.36%; with K562 [12], “Dose-Dependent Effect”. Further, the Activity in the data set on K562 [13] was 29.72%; in data set [14] it was “Non-Toxic”; in the data set on K562 [15] it was “Dose-Dependent Effect”; in the data set with K562 [16], 24.51%. Also, the viability at 0.002 µM in the data set with K562 [5] came to 81.2%. Besides, the IC50 in the data set with K562 [6] is 3 nM; at Histone deacetylase 1 [9], 403 nM; in the data set with A2780, 5 nM; in the data set with HUVEC, 192 nM; at Histone deacetylase 2 [17] it was 591 nM; in [18] it was 459 nM. In the data set with MDA-MB-231 [21], the IC50 was 11 nM. Also, in the data set on MDA-MB-231 [8], the inhibition result is “Dose-Dependent Effect”. Moreover, the Flu intensity with K562 [10] was determined as 17.63%. Moreover, in the data set on K562 [20], the viability at 0.008 µM was determined as 52.6%.
